These results are taken from ChEMBL document CHEMBL1649479, “In vitro activity of doripenem against Burkholderia pseudomallei” (2009).

Converted amounts (≈) assume the structure as drawn.

Common to all, as to format: functional
Assay [1] concerns Burkholderia pseudomallei. Put plainly: Antimicrobial activity against Burkholderia pseudomallei by agar dilution method. Background: In agar dilution, organisms are placed on agar that contains the substance at set levels.
In assay [2] the test system is Burkholderia pseudomallei. The assay is described as follows: Antimicrobial activity against Burkholderia pseudomallei by Etest method.
For a further assay, the system named is Escherichia coli. Put plainly: Antimicrobial activity against Escherichia coli ATCC 25922 by agar dilution method.
The subject of assay [3] is Burkholderia pseudomallei. The assay is described as follows: Selectivity ratio of MIC for Burkholderia pseudomallei by agar dilution method to MIC for Burkholderia pseudomallei by Etest method.
A further assay deals with Pseudomonas aeruginosa. Put plainly: Antimicrobial activity against Pseudomonas aeruginosa ATCC 27853 by agar dilution method.
The mark [4] stands for this setting: Burkholderia pseudomallei, read-out: MIC90.

For the molecule `C[C@@H](O)[C@H]1C(=O)N2C(C(=O)O)=C(S[C@@H]3CN[C@H](C(=O)N(C)C)C3)[C@H](C)[C@H]12` [MEROPENEM], the MIC50 in assay [1] (Burkholderia pseudomallei) is 3 µg/mL (≈ 7.82 µM); in assay [2] it was 1 µg/mL (≈ 2.61 µM). Besides, the figures for the MIC90 in assay [1] (setting [4]) and in assay [2] were 4 µg/mL (≈ 10.4 µM) and 2 µg/mL (≈ 5.22 µM), respectively.

With `C[C@@H](O)[C@H]1C(=O)N2C(C(=O)O)=C(SCCNC=N)C[C@H]12` [IMIPENEM ANHYDROUS], the MIC50 was 1 µg/mL (≈ 3.34 µM) in assay [1] (Burkholderia pseudomallei) and 0.5 µg/mL (≈ 1.67 µM) in assay [2]. The MIC90 in assay [1] (setting [4]) and in assay [2] was 1 µg/mL (≈ 3.34 µM) each time.

Turning to `C[C@@H](O)[C@H]1C(=O)N2C(C(=O)O)=C(S[C@@H]3CN[C@H](CNS(N)(=O)=O)C3)[C@H](C)[C@H]12` [DORIPENEM], the results for the MIC90 result in assay [1], in assay [1] (setting [4]) and in assay [2] were “<=2 ug ml-1”, 1.5 µg/mL (≈ 3.57 µM) and 0.75 µg/mL (≈ 1.78 µM), respectively. Besides, the “inhibition zone (IZ)” value in assay [1] is 24 mm. Moreover, the figures for the MIC50 in assay [1] (Burkholderia pseudomallei) and in assay [2] were 1 µg/mL (≈ 2.38 µM) and 0.5 µg/mL (≈ 1.19 µM), respectively. In addition, the MIC was determined as 0.012 µg/mL (≈ 0.0285 µM) with Escherichia coli, 0.125 µg/mL (≈ 0.297 µM) against Pseudomonas aeruginosa and 0.19 µg/mL (≈ 0.452 µM) in assay [2]. Besides, in assay [3], the Ratio is on record as 2.

The MIC50 is the lowest concentration that inhibits either 50% of growth or 50% of the strains tested, depending on the study. Higher therefore signals weaker potency. Usually MIC90 stands for the lowest concentration that inhibits either 90% of growth or 90% of the strains tested, depending on the study. The MIC is the lowest concentration found to suppress growth. Low values mean a more susceptible organism, high ones a less susceptible organism.
